# Measurements taken from PubChem BioAssay (NCI).
# Where “and” joins values, the source holds several entries; their conditions need not be identical. Equal entries are not always repeated.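 Results reflect a 48-hour exposure of cells in 96-well plates to compound at five concentrations. The concentration for 50% growth inhibition is given as GI50. TGI: total growth inhibition.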 Where a SMILES comes first, the peptide text is derived from it. The star is where a group is joined. Palmitoyl = CCCCCCCCCCCCCCCC(=O)*
# Tests used:
# Test in all cases: NCI-60 cell line screen, 48 h
# CCRF-CEM leukemia = tested on: CCRF-CEM leukemia
# K-562 leukemia = tested on: K-562 leukemia
# M19-MEL melanoma = tested on: M19-MEL melanoma
# NCI-H23 lung = tested on: NCI-H23 lung
# NCI-H522 lung = tested on: NCI-H522 lung
# OVCAR-8 ovarian = tested on: OVCAR-8 ovarian
# SK-MEL-28 melanoma = tested on: SK-MEL-28 melanoma
# KM12 colon = tested on: KM12 colon
# SR leukemia = tested on: SR leukemia
# DU-145 prostate = tested on: DU-145 prostate
Structure (SMILES),TGI (CCRF-CEM leukemia),TGI (K-562 leukemia),TGI (M19-MEL melanoma),TGI (NCI-H23 lung),TGI (NCI-H522 lung),TGI (OVCAR-8 ovarian),TGI (SK-MEL-28 melanoma),TGI (KM12 colon),TGI (SR leukemia),TGI (DU-145 prostate),GI50 (K-562 leukemia),GI50 (CCRF-CEM leukemia),GI50 (KM12 colon),GI50 (M19-MEL melanoma),GI50 (NCI-H23 lung),GI50 (NCI-H522 lung),GI50 (OVCAR-8 ovarian),GI50 (SK-MEL-28 melanoma),GI50 (DU-145 prostate) [µM],GI50 (SR leukemia) [µM]
CC(=O)Nc1ccc(C(=O)N2N=C(C)/C(=C/c3cccc(O)c3)C2=O)cc1,> 100 µM,> 100 µM,> 100 µM,> 100 µM,> 100 µM,> 100 µM,> 100 µM,–,–,–,–,–,–,–,–,–,–,–,–,–
CSc1nc2c(ncn2C2OCC(O)C(O)C2O)c(=O)[nH]1 (centres undefined),> 100 µM,> 100 µM,> 100 µM,> 100 µM,> 100 µM,> 100 µM,> 100 µM,> 100 µM,–,–,–,–,–,–,–,–,–,–,–,–
Cc1c(-c2coc(-c3ccc(Cl)cc3)n2)c(=O)n(-c2ccccc2)n1C,> 100 µM,–,> 100 µM,> 100 µM,> 100 µM,> 100 µM,> 100 µM,> 100 µM,> 100 µM,–,–,–,–,–,–,–,–,–,–,–
Cc1[nH]c(=O)nc(N/N=C/c2ccc(O)cc2)c1C(=O)Nc1ccc(Cl)cc1,> 100 µM,> 100 µM,> 100 µM,–,> 100 µM,> 100 µM,> 100 µM,> 100 µM,> 100 µM,–,–,–,–,–,–,–,–,–,–,–
COc1cc(CC(=O)c2ccc3c(c2)OCO3)cc(OC)c1OC,> 100 µM,> 100 µM,> 100 µM,> 100 µM,> 100 µM,> 100 µM,> 100 µM,> 100 µM,–,–,–,–,–,–,–,–,–,–,–,–
COc1cc2c(c(OC)c1OC)-c1ccc(SC)c(=O)cc1[C@@H](NC(=O)c1ccc(C#N)cc1)CC2,–,> 100 µM,> 100 µM,< 0.01 µM,< 0.01 µM,12.9 µM,> 100 µM,–,> 100 µM,–,–,–,–,–,–,–,–,–,–,–
COc1cc2cc3c4c(cc(OC)c(OC)c4c2cc1OC)CCN3C(=O)OCCBr,88.2 µM,–,> 100 µM,> 100 µM,> 100 µM,> 100 µM,> 100 µM,> 100 µM,> 100 µM,–,–,–,–,–,–,–,–,–,–,–
C=CCN1C(=O)/C(=C/c2ccc(Cl)cc2)N=C1SC1OC(COC(C)=O)C(OC(C)=O)C(OC(C)=O)C1OC(C)=O (centres undefined),> 100 µM,> 100 µM and 76.3 µM,–,> 100 µM and 76.2 µM,17.8 µM and 42.9 µM,36 µM and 81.4 µM,> 100 µM,> 100 µM,> 100 µM and 36.6 µM,> 100 µM,> 61.7 µM and 13.1 µM,–,–,–,–,–,–,–,–,–
COc1cc(O)c2c(c1)C(O)C(O)CC1OC1C(=O)/C=C/CC(C)OC2=O (centres undefined),8.8 µM,13.6 µM,–,12 µM,8.07 µM,25 µM,12 µM,27.1 µM,> 45.4 µM,> 72.2 µM,–,–,–,–,–,–,–,–,–,–
COC1(OC)N=C(N)C2(C#N)/C(=N/N(C)C)CC(C)C12C#N (centres undefined),> 100 µM,> 100 µM,–,> 100 µM,> 100 µM,> 100 µM,> 100 µM,> 100 µM,> 100 µM,> 100 µM,–,–,–,–,–,–,–,–,–,–
COc1ccc([C@@]23CCC(=O)C[C@@H]2N(C)CC3)cc1OC,> 100 µM,> 100 µM,–,> 100 µM,> 100 µM,> 100 µM,> 100 µM,> 100 µM,> 100 µM,> 100 µM,–,–,–,–,–,–,–,–,–,–
O=C(O)c1ccccc1-c1ccccc1C(=O)c1ccccc1,> 100 µM,> 100 µM,–,> 100 µM,> 100 µM,> 100 µM,> 100 µM,> 100 µM,> 100 µM,> 100 µM,–,–,–,–,–,–,–,–,–,–
O=C(O)CNC(=O)c1cccc2c(=O)c3ccccc3[nH]c12,> 100 µM,> 100 µM,–,> 100 µM,> 100 µM,> 100 µM,> 100 µM,> 86.4 µM,> 100 µM,> 100 µM,–,–,–,–,–,–,–,–,–,–
COc1ccc(C=O)cc1Oc1ccc(C[C@H]2c3c(cc(OC)c4c3Oc3cc5c(cc3O4)CCN(C)C5=O)CCN2C)cc1,22.1 µM,12.3 µM,–,16 µM,18.1 µM,15.2 µM,22.7 µM,17.1 µM,21.7 µM,25.2 µM,–,–,–,–,–,–,–,–,–,–
COC(=O)C(Cc1ccccc1)NC(=O)CCCNC(=O)OCc1ccccc1 (centres undefined),> 100 µM,> 100 µM,–,> 100 µM,> 100 µM,> 100 µM,> 100 µM,> 100 µM,> 100 µM,> 100 µM,–,–,–,–,–,–,–,–,–,–
Fc1nc(F)nc(-c2c3ccccc3c3n2CCS3)n1,> 100 µM,> 100 µM,> 100 µM,> 100 µM,> 100 µM,–,> 100 µM,> 100 µM,> 100 µM,–,–,–,–,–,–,–,–,–,–,–

Structure (SMILES),TGI (CCRF-CEM leukemia),TGI (K-562 leukemia),TGI (M19-MEL melanoma),TGI (NCI-H23 lung),TGI (NCI-H522 lung),TGI (OVCAR-8 ovarian),TGI (SK-MEL-28 melanoma),TGI (KM12 colon),TGI (SR leukemia),TGI (DU-145 prostate),GI50 (K-562 leukemia),GI50 (CCRF-CEM leukemia),GI50 (KM12 colon),GI50 (M19-MEL melanoma),GI50 (NCI-H23 lung),GI50 (NCI-H522 lung),GI50 (OVCAR-8 ovarian),GI50 (SK-MEL-28 melanoma),GI50 (DU-145 prostate) [µM],GI50 (SR leukemia) [µM]
CCCCCCCC(CC(=O)O)OC(=O)CC(CCCCCCC)OC1OC(C)C(O)C(O)C1OC1OC(C)C(O)C(O)C1O (centres undefined),> 100 µM,> 100 µM,–,> 100 µM,> 100 µM,> 100 µM,> 100 µM,> 100 µM,> 100 µM,> 100 µM,–,–,–,–,–,–,–,–,–,–
CC(C)[Si]1(C(C)C)OCC2OC(n3cnc4c(N)ncnc43)C(N)C2O[Si](C(C)C)(C(C)C)O1 (centres undefined),> 71.6 µM,36.9 µM,–,26.5 µM,26.4 µM,25.1 µM,> 72.1 µM,16.6 µM,> 27.1 µM,31.4 µM,–,–,–,–,–,–,–,–,–,–
CC(=O)c1c(O)c(C)c(O)c2c1OC1=CC(=O)C(C(C)=O)C(=O)C12C (centres undefined),26.2 µM and 72.6 µM,24.3 µM and 84.8 µM,44.4 µM and 79.3 µM,26.6 µM and 49.6 µM,15.2 µM and 56.6 µM,22.3 µM and 52.2 µM,40.9 µM and 22 µM,32.2 µM and 63.5 µM,–,–,4.62 µM and 23 µM,4.26 µM and 20.7 µM,6.21 µM and 19 µM,5.4 µM and 24.9 µM,6.72 µM and 18.7 µM,4.15 µM and 19.3 µM,4.84 µM and 14.1 µM,–,–,–
Cc1ccc(S(=O)(=O)NC(=O)NS(=O)(=O)O)cc1,> 100 µM,> 100 µM,–,> 100 µM,> 100 µM,> 100 µM,> 100 µM,> 100 µM,> 100 µM,> 100 µM,–,–,–,–,–,–,–,–,–,–
COc1cc2c(cc1OC)C1Cc3ccccc3CN1CCC2 (centres undefined),> 100 µM,> 100 µM,–,> 100 µM,> 100 µM,> 100 µM,> 100 µM,> 100 µM,> 100 µM,> 100 µM,–,–,–,–,–,–,–,–,–,–
CCC1(O)CN(CCOC)[C@H]2C[C@@H]1C(=O)c1[nH]c3ccccc3c12 (some centres undefined),> 100 µM,> 100 µM,–,> 100 µM,> 100 µM,> 100 µM,> 100 µM,> 100 µM,> 100 µM,> 100 µM,–,–,–,–,–,–,–,–,–,–
CC(=O)Oc1ccc2c(c1)c1c(OC(C)=O)c3ccccc3c(OC(C)=O)c1n2Cc1cccc(C)c1,62.6 µM,> 100 µM,–,> 100 µM,52.8 µM,> 100 µM,> 100 µM,> 100 µM,83.1 µM,> 100 µM,–,–,–,–,–,–,–,–,–,–
COC1(OC)/C(=C(\N)C=O)NC(C)(C)N1O,> 100 µM,> 100 µM,–,> 100 µM,> 100 µM,> 100 µM,> 100 µM,> 100 µM,> 100 µM,> 100 µM,–,–,–,–,–,–,–,–,–,–
CN1C/C(=C\c2ccccc2[N+](=O)[O-])C(=O)/C(=C/c2ccccc2[N+](=O)[O-])C1,0.542 µM and 0.568 µM,–,–,3.26 µM and > 20.7 µM,1.05 µM and 0.396 µM,0.328 µM and 1.85 µM,3.15 µM and 4.18 µM,4.65 µM and 2.63 µM,13.2 µM and 7.93 µM,6.66 µM and 3.62 µM,0.25 µM and 0.089 µM,0.226 µM and 0.0611 µM,–,–,0.868 µM,0.437 µM and 0.187 µM,0.175 µM and 0.517 µM,0.906 µM and 1.83 µM,–,–
CCCCCCCCCCCCCCCC(=O)NC(CCCCN)C(=O)NCC(=O)NC(Cc1ccccc1)C(=O)N1CCCC1C(=O)NC(CO)C(=O)NC(Cc1ccc(O)cc1)C(=O)NC(CCCCN)C(=O)NC(CC(C)C)C(=O)NC(CCCN=C(N)N)C(=O)N1CCCC1C(=O)NCC(N)=O (centres undefined) (Palmitoyl-KGFPSYKLRPG-NH2; configuration not given here),40.2 µM,47.9 µM,–,55.6 µM,50.6 µM,52.8 µM,68.2 µM,46.6 µM,39.4 µM,49.4 µM,22.2 µM,20.5 µM,19.4 µM,–,23.9 µM,22.1 µM,21.9 µM,28.6 µM,20.2,17.7
O=C(CCN1CCCCC1CO)Nc1ccc2c(c1)C(=O)c1ccc(NC(=O)CCN3CCCCC3CO)cc1C2=O (centres undefined),30.5 µM,46.1 µM,29.3 µM,38.1 µM,20.6 µM,39.6 µM,28.4 µM,17.1 µM,68.9 µM,–,–,–,–,–,–,–,–,–,–,–
O=C(O)CCCc1nc2c(n1-c1ccccc1)C(=O)c1ccccc1C2=O,> 100 µM,> 100 µM,–,> 100 µM,> 100 µM,> 100 µM,> 100 µM,> 100 µM,> 100 µM,> 100 µM,–,–,–,–,–,–,–,–,–,–
COC(=O)CNC(=O)/C=C/[C@H](O[Si](C)(C)C(C)(C)C)[C@H](/C=C/C(=O)NCC(=O)OC)O[Si](C)(C)C(C)(C)C,> 25 µM,> 25 µM,–,> 25 µM,> 25 µM,> 25 µM,> 25 µM,> 25 µM,> 25 µM,> 25 µM,–,–,–,–,–,–,–,–,–,–
CN(C)CCNC(=O)c1cccc2c(NC(CS)C(=O)O)c3ccccc3nc12 (centres undefined),> 100 µM,> 100 µM,–,30.4 µM,20.2 µM,> 100 µM,35.7 µM,> 100 µM,> 100 µM,> 100 µM,–,–,–,–,–,–,–,–,–,–
C[C@@H](C[C@@H](O)[C@H](O)C(C)(C)O)[C@H]1CC=C2[C@]3(C)[C@H](O)C[C@H]4C(C)(C)[C@H](O)CC[C@]4(C)[C@H]3CC[C@@]21C,40.8 µM,41.7 µM,–,33.6 µM,28 µM,33.8 µM,28.5 µM,32.8 µM,> 100 µM,30.8 µM,–,–,–,–,–,–,–,–,–,–
O=C(NCCCCl)c1c(O)c2ccccc2[nH]c1=O,> 100 µM,> 100 µM,–,> 100 µM,> 100 µM,> 100 µM,> 100 µM,> 100 µM,> 100 µM,> 100 µM,–,–,–,–,–,–,–,–,–,–
